Assay results as given in BindingDB's records for doi:10.1016/j.bmcl.2005.02.039 (National Institute of Pharmaceutical Education and Research …, 2005).
pIC50: −log10 of the molar value.

assay: Anti-oxidant activity in DPPH radicak scavenging assay; n=3-4

Row | pIC50 | SMILES
1 | 4.81 | COc1cc(C=Cc2cc(C=Cc3ccc(O)cc3)n[nH]2)ccc1O [4-((E)-2-{5-[(E)-2-(4-Hydroxy-phenyl)-vinyl]-1H-pyrazol-3-yl}-vinyl)-2-methoxy-phenol]
2 | 4.49 | Oc1ccc(/C=C/c2cc(/C=C/c3ccc(O)cc3)[nH]n2)cc1 [4-((E)-2-{3-[(E)-2-(4-hydroxyphenyl)vinyl]-1H-pyrazol-5-yl}vinyl)phenol]
3 | 4.72 | COc1cc(/C=C/c2cc(/C=C/c3ccc(O)cc3)on2)ccc1O [4-((E)-2-{5-[(E)-2-(4-Hydroxy-phenyl)-vinyl]-isoxazol-3-yl}-vinyl)-2-methoxy-phenol]
